# Source: publication PMC8280112, “Substrate reduction therapy for Krabbe disease and metachromatic leukodystrophy using a novel ceramide galactosyltransferase inhibitor” (Scientific Reports, 2021)
# Where “and” joins values, the source holds several entries; their conditions need not be identical. Equal entries are not always repeated.
# How the values were obtained:
# [1] = target: T1, Cerebroside sulfotransferase (CST) (Homo sapiens, UniProt Q99999); assay: Cerebroside sulfotransferase assay; type: biochemical; details: lysate of CHO cells expressing GAL3ST1
# T1 construct: made in house; host or cells: CHO cells stably expressing GAL3ST1 cDNA; MPER lysate
# T1 sequence (Q99999 1-423): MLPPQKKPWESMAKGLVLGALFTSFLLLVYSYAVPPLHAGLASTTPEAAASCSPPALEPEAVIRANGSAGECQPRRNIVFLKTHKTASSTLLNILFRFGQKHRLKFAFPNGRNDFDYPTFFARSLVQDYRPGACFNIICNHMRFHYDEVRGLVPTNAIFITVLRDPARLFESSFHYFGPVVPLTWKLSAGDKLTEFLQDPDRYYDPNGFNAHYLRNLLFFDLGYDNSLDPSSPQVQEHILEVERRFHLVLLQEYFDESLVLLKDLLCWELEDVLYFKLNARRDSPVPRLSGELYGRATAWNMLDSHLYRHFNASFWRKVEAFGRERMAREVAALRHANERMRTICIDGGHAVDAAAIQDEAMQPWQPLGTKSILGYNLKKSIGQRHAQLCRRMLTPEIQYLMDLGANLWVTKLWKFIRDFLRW
# Protocol: A 50 µL reaction consisting of 4 µg MPER lysate prepared from CHO cells stably expressing GAL3ST1 cDNA construct (made by BioMarin), 3 µM N-dodecanoyl-NBD-galactosylceramide […] 10 µM PAPS (Sigma) added as substrate (in DMSO/Tween 80), reaction buffer (100 mM Tris/HCl (pH 7.0), 2.5 mM ATP, 20 mM MgCl2), and test compound. The reaction was incubated at 37 ℃ for 2 h then stopped with 100 µL of 3:1 methanol:acetonitrile (containing 500 nM NBD-C6-OH ceramide as an IS). After 1 h shaking, 150 µL 1:2 H2O:ACN was added, mixed, and centrifuged 4000 rpm for 30 min at RT. Supernatant was transferred for LC–MS analysis using the same conditions used for the CGT cellular assay.
# [2] = target: T2, Recombinant human galactosylceramidase (GALC) (Homo sapiens, UniProt P54803); assay: Galactosylceramidase assay; type: biochemical
# T2 construct: purchased R&D Systems
# T2 sequence (P54803 43-685): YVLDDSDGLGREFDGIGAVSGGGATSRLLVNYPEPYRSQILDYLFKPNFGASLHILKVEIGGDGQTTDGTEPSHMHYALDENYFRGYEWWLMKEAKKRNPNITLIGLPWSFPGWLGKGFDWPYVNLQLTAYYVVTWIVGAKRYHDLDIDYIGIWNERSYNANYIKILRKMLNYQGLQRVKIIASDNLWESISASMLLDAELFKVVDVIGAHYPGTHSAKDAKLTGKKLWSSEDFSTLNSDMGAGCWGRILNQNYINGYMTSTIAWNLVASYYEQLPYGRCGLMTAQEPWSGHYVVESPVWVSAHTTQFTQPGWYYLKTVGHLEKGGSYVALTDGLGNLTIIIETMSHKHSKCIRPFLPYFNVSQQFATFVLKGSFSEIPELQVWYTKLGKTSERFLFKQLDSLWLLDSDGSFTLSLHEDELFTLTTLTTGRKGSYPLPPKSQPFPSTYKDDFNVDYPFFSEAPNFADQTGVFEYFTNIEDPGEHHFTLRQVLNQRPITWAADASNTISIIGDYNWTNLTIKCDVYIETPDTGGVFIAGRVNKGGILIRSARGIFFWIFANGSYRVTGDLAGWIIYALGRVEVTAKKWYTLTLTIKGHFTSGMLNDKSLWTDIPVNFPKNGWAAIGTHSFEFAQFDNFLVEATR
# Description: Recombinant human galactosylceramidase (R&D Systems) activity was monitored using the artificial fluorescent substrate 4-methylumbelliferyl-β-D-galactopyranoside (Sigma) using the assay conditions described on the enzyme product datasheet.
# [3] = target: T3, CGT in CHO cells stably expressing human UGT8 (Homo sapiens, UniProt Q16880); assay: CGT cellular assay (intact-cell assay); type: cell-based
# T3 construct: expressed in transfected cells; host or cells: CHO cells stably expressing human UGT8
# T3 sequence (Q16880 21-541): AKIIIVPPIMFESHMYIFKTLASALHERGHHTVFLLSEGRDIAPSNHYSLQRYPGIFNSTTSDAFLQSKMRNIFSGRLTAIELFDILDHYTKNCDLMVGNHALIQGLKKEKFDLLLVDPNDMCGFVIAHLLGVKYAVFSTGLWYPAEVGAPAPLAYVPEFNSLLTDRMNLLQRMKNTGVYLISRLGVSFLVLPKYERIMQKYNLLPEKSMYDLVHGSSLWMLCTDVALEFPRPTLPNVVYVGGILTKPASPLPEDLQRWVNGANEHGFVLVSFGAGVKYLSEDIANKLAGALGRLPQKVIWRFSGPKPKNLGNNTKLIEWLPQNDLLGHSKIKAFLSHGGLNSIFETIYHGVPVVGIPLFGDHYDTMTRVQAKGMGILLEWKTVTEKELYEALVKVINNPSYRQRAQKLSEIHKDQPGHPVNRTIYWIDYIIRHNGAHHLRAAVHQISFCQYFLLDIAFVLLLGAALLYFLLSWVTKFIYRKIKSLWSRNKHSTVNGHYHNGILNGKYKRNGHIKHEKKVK
# Protocol: 3 × 10^4 CHO cells stably expressing human UGT8 were seeded in a 96-well TC plate in F12K + 10% FBS (Invitrogen, qualified, Australia, 10099141) and incubated at 37 °C, 5% CO2 overnight. Media was removed and compounds, diluted in F12K + 5% FBS (0.1% DMSO final) containing 1 µM eliglustat to prevent NBD-glucosylceramide formation, were added to the cells and incubated 2 h at 37 °C. NDB-(2R-OH)-C6-ceramide (BioMarin) in F12K + 5% FBS + 11% BSA was added to a final substrate concentration of 10 µM in 1% BSA and incubated 1 h at 37 °C before extracting in methanol/0.5% acetic acid containing N-dodecanoyl-NBD-galactosylceramide IS (1 µM). After 2 h shaking, the solution was centrifuged at 4000 rpm for 30 min, and 80 µL of supernatant was transferred to 40 µL H2O, mixed and centrifuged at 4000 rpm for 10 min. NDB-(2R-OH)-C6-galactosylceramide product was quantified by a Shimadzu ultra-fast liquid chromatography system (Shimadzu) coupled to an API 4000 mass spectrometer in ESI negative mode (Applied Biosystems) using a Kinetex C18 column (50 × 2.1 mm, 2.6 µm, 100 Å) (Phenomenex) with 0.1% formic acid and acetonitrile supplemented with 0.1% formic acid.
compound,measurement,setting,value
C[C@H]1N(c2ccc(Br)cc2)C(=O)N(c2ccc(Br)cc2)C1(O)c1cccc(OC(F)(F)F)c1 (stereo partly drawn) [S202],IC50,[1],> 50000 nM
same,IC50,[2],> 50000 nM
same,IC50,[3],2 nM and 3.6 nM and 3 nM
